Common to all, as to assay type: functional
Test [1] concerns the target T1, Cdk-related protein kinase 6 (Plasmodium falciparum, UniProt O77239).
T1 sequence (O77239 whole entry): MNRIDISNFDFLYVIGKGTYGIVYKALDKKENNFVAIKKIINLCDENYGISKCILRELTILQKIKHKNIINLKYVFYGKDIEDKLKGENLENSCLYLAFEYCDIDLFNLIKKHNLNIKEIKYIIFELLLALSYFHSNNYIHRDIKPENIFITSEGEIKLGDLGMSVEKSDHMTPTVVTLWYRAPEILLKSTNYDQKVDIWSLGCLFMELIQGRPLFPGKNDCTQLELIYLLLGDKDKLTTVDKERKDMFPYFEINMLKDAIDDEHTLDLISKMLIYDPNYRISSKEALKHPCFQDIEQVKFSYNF
In words: Final concentrations were 1.5 uM ATP, 5 mM MnCl2, and 15 ug/ml PK6 in a buffer of 100 mM Tris-HCl (pH 7.5). 50 ug/mL MBP was provided as the substrate; 10 uM staurosporine was used as a control inhibitor. Incubation time was 3 hours and 40 minutes.The catalytic activity of each kinase was considered proportional to ATP consumed, as determined from measurements of residual [ATP] with the luciferase-based reagent Kinase-Glo (Promega) following incubation. Luminescence (proportional to residual [ATP]) was measured on the plate readers FLx800 (BioTek Instruments, Winooski, VT, USA) and MicroBeta2.

The target in test [2] is T2, Putative uncharacterized protein pk7 (Plasmodium falciparum, UniProt O96214).
T2 sequence (O96214 whole entry): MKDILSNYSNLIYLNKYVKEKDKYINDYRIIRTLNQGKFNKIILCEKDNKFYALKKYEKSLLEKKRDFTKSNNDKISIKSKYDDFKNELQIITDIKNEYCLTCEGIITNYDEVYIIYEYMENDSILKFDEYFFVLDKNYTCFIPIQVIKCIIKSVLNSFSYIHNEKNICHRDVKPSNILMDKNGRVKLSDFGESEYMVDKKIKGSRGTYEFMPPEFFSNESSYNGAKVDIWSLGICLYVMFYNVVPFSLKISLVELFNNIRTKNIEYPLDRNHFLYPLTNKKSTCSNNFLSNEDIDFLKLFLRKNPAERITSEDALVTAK
As to the kind of experiment: Final concentrations were 1 uM ATP, 2 mM DTT, 20 mM MgCl2, 2 mM MnCl2, 0.01% BSA, and 6 ug/ml PK7, in a buffer of 20 mM Tris-HCl (pH 7.5). The enzyme itself was the only substrate present (since autophosphorylation occurs); 100 uM 1NA-PP1 was used as a control inhibitor. Incubation time was 3 hours.

Test [3] concerns the target T3, Mitogen-activated protein kinase (Plasmodium falciparum, UniProt Q25917).
T3 sequence (Q25917 whole entry): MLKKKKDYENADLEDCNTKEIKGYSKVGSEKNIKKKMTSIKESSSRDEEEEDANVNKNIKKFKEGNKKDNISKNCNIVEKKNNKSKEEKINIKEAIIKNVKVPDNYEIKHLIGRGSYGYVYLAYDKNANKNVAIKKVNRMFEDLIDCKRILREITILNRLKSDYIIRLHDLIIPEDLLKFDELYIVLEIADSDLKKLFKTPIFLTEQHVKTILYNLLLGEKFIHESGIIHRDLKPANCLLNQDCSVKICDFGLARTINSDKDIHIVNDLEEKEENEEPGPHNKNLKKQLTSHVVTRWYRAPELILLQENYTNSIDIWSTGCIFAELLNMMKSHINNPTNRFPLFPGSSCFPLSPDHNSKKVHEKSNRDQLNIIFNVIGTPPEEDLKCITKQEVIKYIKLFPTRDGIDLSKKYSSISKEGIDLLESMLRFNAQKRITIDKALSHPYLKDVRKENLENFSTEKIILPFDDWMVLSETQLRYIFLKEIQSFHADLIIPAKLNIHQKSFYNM
In words: Final concentrations were 1 uM ATP, 0.5 mM DTT, 1 mM MgCl2, 0.5 mg/mL BSA, and 10 ug/ml MAP2 in a buffer of 50 mM HEPES (pH 7.0). 0.5 mg/mL histone III-S served as the substrate (13); 100 uM AMP-PNP, an ATP analog, was used as a control inhibitor. Incubation time was 4 hours.

Test [4] concerns the target Calcium-dependent protein kinase 1 (Plasmodium falciparum, UniProt P62344). As to the kind of experiment: MMV: CDPK1 Protein kinase inhibition assay using recombinant PfCDPK1, syntide 2 peptide substrate, ATP and KinaseGlo to measure % inhibition at 1 uM MMV box compound.
The target in test [5] is T4, Calcium-dependent protein kinase 4 (Plasmodium falciparum (isolate 3D7), UniProt Q8IBS5).
T4 sequence (Q8IBS5 whole entry): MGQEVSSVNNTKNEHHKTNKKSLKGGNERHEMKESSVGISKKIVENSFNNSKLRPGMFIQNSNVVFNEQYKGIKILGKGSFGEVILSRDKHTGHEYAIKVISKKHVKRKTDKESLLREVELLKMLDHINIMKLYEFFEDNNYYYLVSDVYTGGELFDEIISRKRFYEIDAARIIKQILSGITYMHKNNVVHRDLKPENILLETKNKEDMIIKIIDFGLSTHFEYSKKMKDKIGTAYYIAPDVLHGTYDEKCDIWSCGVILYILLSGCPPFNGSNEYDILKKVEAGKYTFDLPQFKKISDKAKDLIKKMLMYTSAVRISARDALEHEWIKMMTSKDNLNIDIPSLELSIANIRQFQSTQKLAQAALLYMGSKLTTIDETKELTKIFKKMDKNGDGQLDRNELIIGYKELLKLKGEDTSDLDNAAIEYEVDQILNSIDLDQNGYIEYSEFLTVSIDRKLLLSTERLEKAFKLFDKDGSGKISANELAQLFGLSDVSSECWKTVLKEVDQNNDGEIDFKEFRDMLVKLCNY
In words: MMV: CDPK4 Protein kinase inhibition assay using recombinant PfCDPK4, syntide2 peptide substrate, ATP and KinaseGlo to measure % inhibition at 1 uM MMV box compound.

A further test deals with T5, Proline--tRNA ligase (Plasmodium falciparum (isolate 3D7), UniProt Q8I5R7).
T5 sequence (Q8I5R7 whole entry): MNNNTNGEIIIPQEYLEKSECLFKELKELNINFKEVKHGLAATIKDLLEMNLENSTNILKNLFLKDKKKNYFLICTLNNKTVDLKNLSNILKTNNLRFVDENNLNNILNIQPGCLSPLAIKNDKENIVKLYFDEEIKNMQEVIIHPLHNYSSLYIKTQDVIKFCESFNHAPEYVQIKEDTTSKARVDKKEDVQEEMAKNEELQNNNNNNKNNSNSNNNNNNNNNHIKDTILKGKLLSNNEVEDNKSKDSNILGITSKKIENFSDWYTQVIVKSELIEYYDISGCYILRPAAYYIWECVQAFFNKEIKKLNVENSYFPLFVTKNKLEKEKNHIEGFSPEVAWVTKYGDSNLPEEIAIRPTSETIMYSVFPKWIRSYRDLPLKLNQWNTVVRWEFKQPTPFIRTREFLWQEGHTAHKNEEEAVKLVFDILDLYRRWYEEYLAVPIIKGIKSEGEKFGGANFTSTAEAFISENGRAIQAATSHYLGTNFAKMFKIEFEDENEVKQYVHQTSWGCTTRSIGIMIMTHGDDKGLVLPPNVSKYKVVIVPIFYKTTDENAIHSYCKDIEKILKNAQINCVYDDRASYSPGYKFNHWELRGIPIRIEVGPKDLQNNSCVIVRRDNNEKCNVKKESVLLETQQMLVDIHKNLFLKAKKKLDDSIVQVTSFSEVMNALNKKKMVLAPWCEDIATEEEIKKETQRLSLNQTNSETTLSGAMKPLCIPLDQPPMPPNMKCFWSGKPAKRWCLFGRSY
As to the kind of experiment: MMV: ProRS recombinant Plasmodium falciparum Prolyl-tRNA-synthetase, assay with yeast tRNA, ATP, and proline and 3 uM MMV malaria box compound, assay read out with kinase glo as % inhibition.

The next test concerns the target Lysine--tRNA ligase (Plasmodium falciparum (isolate 3D7), UniProt Q8IDJ8). As to the kind of experiment: MMV: KRS recombinant Plasmodium falciparum Lysyl-tRNA-synthetase, assay with yeast tRNA, ATP, and lysine and 3 uM MMV malaria box compound, assay read out with kinase glo as % inhibition.

Molecules are shown by their SMILES.

Sequence of Lysine--tRNA ligase (Q8IDJ8 whole entry): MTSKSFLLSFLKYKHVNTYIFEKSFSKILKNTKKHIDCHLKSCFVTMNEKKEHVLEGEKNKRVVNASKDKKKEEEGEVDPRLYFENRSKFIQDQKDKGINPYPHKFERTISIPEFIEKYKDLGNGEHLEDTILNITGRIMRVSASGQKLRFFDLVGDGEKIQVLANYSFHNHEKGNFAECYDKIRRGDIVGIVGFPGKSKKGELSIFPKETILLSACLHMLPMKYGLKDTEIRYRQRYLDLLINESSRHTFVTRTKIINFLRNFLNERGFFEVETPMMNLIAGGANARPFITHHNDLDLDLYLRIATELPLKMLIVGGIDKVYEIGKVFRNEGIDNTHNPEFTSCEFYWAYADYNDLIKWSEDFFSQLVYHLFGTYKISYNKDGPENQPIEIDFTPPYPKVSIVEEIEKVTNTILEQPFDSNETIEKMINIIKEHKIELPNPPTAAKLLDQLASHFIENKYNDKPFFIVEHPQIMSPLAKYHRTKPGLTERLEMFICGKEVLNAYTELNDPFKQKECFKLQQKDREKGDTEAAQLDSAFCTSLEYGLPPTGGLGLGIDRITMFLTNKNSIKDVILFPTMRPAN
Sequence of Calcium-dependent protein kinase 1 (P62344 whole entry): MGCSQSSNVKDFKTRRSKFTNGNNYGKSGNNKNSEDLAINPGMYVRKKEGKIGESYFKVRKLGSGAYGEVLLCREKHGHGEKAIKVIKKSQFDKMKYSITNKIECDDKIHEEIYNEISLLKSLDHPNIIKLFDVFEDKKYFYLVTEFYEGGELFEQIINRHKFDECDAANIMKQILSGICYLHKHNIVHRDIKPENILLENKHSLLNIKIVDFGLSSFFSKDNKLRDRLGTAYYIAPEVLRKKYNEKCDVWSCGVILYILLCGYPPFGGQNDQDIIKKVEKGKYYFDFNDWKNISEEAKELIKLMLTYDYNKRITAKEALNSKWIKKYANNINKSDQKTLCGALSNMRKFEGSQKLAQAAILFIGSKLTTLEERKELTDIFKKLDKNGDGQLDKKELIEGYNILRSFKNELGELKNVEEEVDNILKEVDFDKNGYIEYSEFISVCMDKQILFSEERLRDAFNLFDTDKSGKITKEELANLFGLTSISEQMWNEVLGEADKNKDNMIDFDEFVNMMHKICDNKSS

Take `CCOC(=O)C1=C(C)N=c2sc(=Cc3cc(Cl)ccc3O)c(=O)n2C1c1ccc(OC)cc1` (stereo not drawn): the IC50 is more than 1 µM in test [1]; more than 1 µM in test [2]; more than 1 µM in test [3]; more than 1 µM in test [4]; more than 1 µM in test [5]; more than 2.5 µM on Proline--tRNA ligase. For the same molecule, the IC50 on Lysine--tRNA ligase was more than 2.5 µM.
On to `FC(F)(F)c1cccc(Nc2nc3ccccc3nc2Nc2cccc(C(F)(F)F)c2)c1`, for which the half-inhibitory concentration (IC50) in test [1] is more than 1 µM; in test [2] it was more than 1 µM; in test [3], more than 1 µM; in test [4], more than 1 µM; in test [5] it was more than 1 µM; at Proline--tRNA ligase, more than 2.5 µM. On Lysine--tRNA ligase, the IC50 is more than 2.5 µM.
On to `Cc1ccnc(NC(c2cccc(OCc3ccccc3)c2)c2ccc3cccnc3c2O)c1` (stereo not drawn), for which the half-maximal inhibitory concentration (IC50) in test [1] is more than 1 µM; in test [2], more than 1 µM; in test [3], more than 1 µM; in test [4], more than 1 µM; in test [5], more than 1 µM; on Proline--tRNA ligase, more than 2.5 µM. Also, on Lysine--tRNA ligase, the IC50 is more than 2.5 µM.
As for `Cc1ccc(OCCCCCCNCCO)c(C)c1`, the IC50 is more than 1 µM in test [1]; more than 1 µM in test [2]; more than 1 µM in test [3]; more than 1 µM in test [4]; more than 1 µM in test [5]; more than 2.5 µM on Proline--tRNA ligase. Besides, the IC50 at Lysine--tRNA ligase was more than 2.5 µM.
Consider `CC(C)CCNCC(O)Cn1c2ccccc2c2ccccc21` (stereo not drawn), for which the IC50 is more than 1 µM in test [1]; more than 1 µM in test [2]; more than 1 µM in test [3]; more than 1 µM in test [4]; more than 1 µM in test [5]; more than 2.5 µM on Proline--tRNA ligase. Besides, the IC50 at Lysine--tRNA ligase is more than 2.5 µM.
`O=C(Nc1ccc(C23CC4CC(CC(c5ccccc5)(C4)C2)C3)cc1)c1cccs1`: the concentration for half-maximal inhibition (IC50) in test [1] is more than 1 µM; in test [2], more than 1 µM; in test [3], more than 1 µM; in test [4], more than 1 µM; in test [5], more than 1 µM; at Proline--tRNA ligase, more than 2.5 µM. In addition, on Lysine--tRNA ligase, the IC50 is more than 2.5 µM.
`Cc1ccc2nc(C)cc(Nc3cccc(C(F)(F)F)c3)c2c1`: the IC50 is more than 1 µM in test [1]; more than 1 µM in test [2]; more than 1 µM in test [3]; more than 1 µM in test [4]; more than 1 µM in test [5]; more than 2.5 µM at Proline--tRNA ligase. Further, the half-inhibitory concentration (IC50) at Lysine--tRNA ligase was more than 2.5 µM.
`CCCCC(O)(c1ccc(Cl)cc1)C(CN1CCOCC1)c1ccc(Cl)cc1` (stereo not drawn): the IC50 is more than 1 µM in test [1]; more than 1 µM in test [2]; more than 1 µM in test [3]; more than 1 µM in test [4]; more than 1 µM in test [5]; more than 2.5 µM on Proline--tRNA ligase. Besides, the IC50 at Lysine--tRNA ligase is more than 2.5 µM.
For `Cc1cc(=O)oc2c1ccc1oc(C(=O)c3ccccc3)c(C)c12`, the 50% inhibitory concentration (IC50) in test [1] is more than 1 µM; in test [2], more than 1 µM; in test [3], more than 1 µM; in test [4] it was more than 1 µM; in test [5], more than 1 µM; at Proline--tRNA ligase it was more than 2.5 µM. Besides, on Lysine--tRNA ligase, the IC50 was more than 2.5 µM.
In the case of `COc1ccc2c(c1OC)C(=O)N1c3ccccc3N=C(c3ccc(C)cc3)CC21` (stereo not drawn), the IC50 is more than 1 µM in test [1]; more than 1 µM in test [2]; more than 1 µM in test [3]; more than 1 µM in test [4]; more than 1 µM in test [5]; more than 2.5 µM on Proline--tRNA ligase. In addition, the IC50 at Lysine--tRNA ligase is more than 2.5 µM.
As for `CCCCCCc1cc(O)c2c3c(c(=O)oc2c1)CCC(C)C3` (stereo not drawn), the half-inhibitory concentration (IC50) was more than 1 µM in test [1]; more than 1 µM in test [2]; more than 1 µM in test [3]; more than 1 µM in test [4]; more than 1 µM in test [5]; more than 2.5 µM at Proline--tRNA ligase. Besides, on Lysine--tRNA ligase, the IC50 is more than 2.5 µM.
On to `CC1=C(CC(=O)c2cccc([N+](=O)[O-])c2)C(=O)c2ccccc2C1=O`, for which the IC50 is more than 1 µM in test [1]; more than 1 µM in test [2]; more than 1 µM in test [3]; more than 1 µM in test [4]; more than 1 µM in test [5]; more than 2.5 µM on Proline--tRNA ligase. Besides, the IC50 at Lysine--tRNA ligase was more than 2.5 µM.
`COc1ccc(C)c2sc(N(Cc3cccnc3)C(=O)c3ccc(C#N)cc3)nc12`: the half-inhibitory concentration (IC50) in test [1] is more than 1 µM; in test [2], more than 1 µM; in test [3], more than 1 µM; in test [4], more than 1 µM; in test [5], more than 1 µM; at Proline--tRNA ligase, more than 2.5 µM. The IC50 at Lysine--tRNA ligase was more than 2.5 µM.
As to `Cc1ccc(S(=O)(=O)c2c(COC(=O)c3cccc(C)c3)c(-c3ccccc3)nn2C)cc1`, the concentration for half-maximal inhibition (IC50) in test [1] was more than 1 µM; in test [2], more than 1 µM; in test [3], more than 1 µM; in test [4], more than 1 µM; in test [5], more than 1 µM; at Proline--tRNA ligase it was more than 2.5 µM. In addition, the IC50 at Lysine--tRNA ligase is more than 2.5 µM.
